The values below come from patent US8754242B2, “Herbicides” (Syngenta Crop Protection LLC, priority 2007, dated 2014).

Format in all cases: in vivo
Assay [1] deals with Alopecurus myosuroides (ALOMY). Put plainly: Test Example 1 pre-emergence herbicidal activity. The note with it: rate 250 g/ha, evaluated 20 days later; for pest or weed control at 250 g/ha: Alopecurus myosuroides, 480 h, read-out: Pre-emergence activity ALOMY (100=total damage to plant; 0=no damage to plant). The essentials:
(§1)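 Sow in pots of standard soil → grow 1 day (pre-emergence) or 10 days (post-emergence) in glasshouse → spray aqueous formulated compound → grow on under optimum conditions → score damage 0–100 at day 20 (pre) or day 15 (post).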

Assay [2] has as its system Avena fatua (AVEFA). Put plainly: Test Example 1 pre-emergence herbicidal activity. The following applies: rate 250 g/ha, evaluated 20 days later; for pest or weed control at 250 g/ha: Avena fatua, 480 h, read-out: Pre-emergence activity AVEFA (100=total damage to plant; 0=no damage to plant). The procedure, abridged: as §1
Assay [3] relates to Digitaria sanguinalis (DIGSA). Description: Test Example 1 pre-emergence herbicidal activity. The following applies: rate 250 g/ha, evaluated 20 days later; for pest or weed control at 250 g/ha: Digitaria sanguinalis, 480 h, read-out: Pre-emergence activity DIGSA (100=total damage to plant; 0=no damage to plant). The procedure, abridged:
as §1

For assay [4], the system named is Echinochloa crus-galli (ECHCG). Put plainly: Test Example 1 pre-emergence herbicidal activity. The following applies: rate 250 g/ha, evaluated 20 days later; for pest or weed control at 250 g/ha: Echinochloa crus-galli, 480 h, read-out: Pre-emergence activity ECHCG (100=total damage to plant; 0=no damage to plant). The procedure, abridged: as §1
Assay [5] has as its system Lolium perenne (LOLPE). Put plainly: Test Example 1 pre-emergence herbicidal activity. The following applies: rate 250 g/ha, evaluated 20 days later; for pest or weed control at 250 g/ha: Lolium perenne, 480 h, read-out: Pre-emergence activity LOLPE (100=total damage to plant; 0=no damage to plant). The procedure, abridged:
as §1

In assay [6] the test system is Setaria faberi (SETFA). Description: Test Example 1 pre-emergence herbicidal activity. The note with it: rate 250 g/ha, evaluated 20 days later; for pest or weed control at 250 g/ha: Setaria faberi, 480 h, read-out: Pre-emergence activity SETFA (100=total damage to plant; 0=no damage to plant). The essentials:
as §1

Assay [7] concerns Alopecurus myosuroides (ALOMY). Put plainly: Test Example 1 post-emergence herbicidal activity. The following applies: rate 125 g/ha, evaluated 15 days later; for pest or weed control at 125 g/ha: 360 h, read-out: Post-emergence activity ALOMY (100=total damage to plant; 0=no damage to plant). The essentials:
as §1

Assay [8] concerns Avena fatua (AVEFA). Put plainly: Test Example 1 post-emergence herbicidal activity. The note with it: rate 125 g/ha, evaluated 15 days later; for pest or weed control at 125 g/ha: 360 h, read-out: Post-emergence activity AVEFA (100=total damage to plant; 0=no damage to plant). The essentials: as §1
The test system of assay [9] is Digitaria sanguinalis (DIGSA). Put plainly: Test Example 1 post-emergence herbicidal activity. The following applies: rate 125 g/ha, evaluated 15 days later; for pest or weed control at 125 g/ha: 360 h, read-out: Post-emergence activity DIGSA (100=total damage to plant; 0=no damage to plant). The procedure, abridged:
as §1

Assay [10] deals with Echinochloa crus-galli (ECHCG). Description: Test Example 1 post-emergence herbicidal activity. The following applies: rate 125 g/ha, evaluated 15 days later; for pest or weed control at 125 g/ha: 360 h, read-out: Post-emergence activity ECHCG (100=total damage to plant; 0=no damage to plant). The essentials: as §1
Assay [11] relates to Lolium perenne (LOLPE). Put plainly: Test Example 1 post-emergence herbicidal activity. The following applies: rate 125 g/ha, evaluated 15 days later; for pest or weed control at 125 g/ha: 360 h, read-out: Post-emergence activity LOLPE (100=total damage to plant; 0=no damage to plant). The procedure, abridged:
as §1

For assay [12], the system named is Setaria faberi (SETFA). Description: Test Example 1 post-emergence herbicidal activity. The following applies: rate 125 g/ha, evaluated 15 days later; for pest or weed control at 125 g/ha: 360 h, read-out: Post-emergence activity SETFA (100=total damage to plant; 0=no damage to plant). The procedure, abridged:
as §1

On to `Cc1cc(C)c(C2=C(O)[C@H]3[C@@H](C2=O)[C@@H]2CC[C@@]3(C)O2)c(C)c1` [Example T48], for which the “Pre-emergence activity ALOMY (100=total damage to plant; 0=no damage to plant)” value in assay [1] is recorded as 100. For the same molecule, the “Pre-emergence activity AVEFA (100=total damage to plant; 0=no damage to plant)” value with Avena fatua (AVEFA) [2] is on record as 80. In assay [3], the “Pre-emergence activity DIGSA (100=total damage to plant; 0=no damage to plant)” value is reported as 100. In assay [4], the “Pre-emergence activity ECHCG (100=total damage to plant; 0=no damage to plant)” value turned out to be 100. Moreover, the “Pre-emergence activity LOLPE (100=total damage to plant; 0=no damage to plant)” value in the assay with Lolium perenne (LOLPE) [5] is recorded as 100. Further, the “Pre-emergence activity SETFA (100=total damage to plant; 0=no damage to plant)” value in the assay with Setaria faberi (SETFA) [6] is reported as 100. Moreover, the “Post-emergence activity ALOMY (100=total damage to plant; 0=no damage to plant)” value in assay [7] is listed as 80. Further, the “Post-emergence activity AVEFA (100=total damage to plant; 0=no damage to plant)” value with Avena fatua (AVEFA) [8] is 70. Also, in [9], the “Post-emergence activity DIGSA (100=total damage to plant; 0=no damage to plant)” value is given as 100. For the same molecule, the “Post-emergence activity ECHCG (100=total damage to plant; 0=no damage to plant)” value in assay [10] amounted to 100. The “Post-emergence activity LOLPE (100=total damage to plant; 0=no damage to plant)” value in the assay on Lolium perenne (LOLPE) [11] came out at 70. Besides, the “Post-emergence activity SETFA (100=total damage to plant; 0=no damage to plant)” value in the assay with Setaria faberi (SETFA) [12] came to 90.
As for `COc1cc(C)c(C2=C(O)[C@H]3[C@@H](C2=O)[C@@H]2CC[C@H]3O2)c(C)c1` [Example T208], the pest or weed control at 250 g/ha is 50% in assay [1]; 70% with Avena fatua (AVEFA) [2]; 70% in [3]; 80% in assay [4]; 80% with Lolium perenne (LOLPE) [5]; 80% in the assay on Setaria faberi (SETFA) [6]. Besides, the pest or weed control at 125 g/ha worked out at 70% in assay [7]; 70% in the assay with Avena fatua (AVEFA) [8]; 50% in assay [9]; 80% in [10]; 80% with Lolium perenne (LOLPE) [11]; 70% in the assay with Setaria faberi (SETFA) [12].
On to `Cc1cc(C)c(C2=C(O)[C@@H]3[C@@H]4O[C@@H](C[C@H]4c4cc(C(F)(F)F)nc(C(F)(F)F)c4)[C@@H]3C2=O)c(C)c1` (racemic) [Example T199], for which the pest or weed control at 250 g/ha in assay [1] stood at 0%; with Avena fatua (AVEFA) [2], 50%; in assay [3], 100%; in assay [4] it was 80%; in the assay on Lolium perenne (LOLPE) [5], 60%; in the assay on Setaria faberi (SETFA) [6], 60%. The pest or weed control at 125 g/ha turned out to be 100% in assay [7]; 100% in the assay with Avena fatua (AVEFA) [8]; 100% in [9]; 100% in [10]; 60% in the assay with Lolium perenne (LOLPE) [11]; 80% in the assay with Setaria faberi (SETFA) [12].
For the molecule `COc1ccc([C@@H]2C[C@@H]3O[C@H]2[C@H]2C(O)=C(c4c(C)cc(C)cc4C)C(=O)[C@H]23)cc1` (racemic) [Example T57], the pest or weed control at 250 g/ha in [1] was 50%; with Avena fatua (AVEFA) [2], 30%; in assay [3] it was 60%; in assay [4], 70%; with Lolium perenne (LOLPE) [5] it was 100%; in the assay with Setaria faberi (SETFA) [6], 80%. Besides, the pest or weed control at 125 g/ha in [7] came to 70%; with Avena fatua (AVEFA) [8], 70%; in [9], 70%; in assay [10], 80%; in the assay on Lolium perenne (LOLPE) [11], 40%; in the assay on Setaria faberi (SETFA) [12], 70%.
As for `CCc1cc(C)cc(CC)c1C1=C(O)C2[C@@H](C1=O)[C@@H]1C[C@@H](c3ccc(OC)cc3)[C@H]2O1` (stereo partly drawn) [Example T156], the pest or weed control at 250 g/ha in assay [1] was determined as 70%; in the assay with Avena fatua (AVEFA) [2] it was 60%; in [3], 70%; in [4], 70%; in the assay on Lolium perenne (LOLPE) [5], 70%; in the assay with Setaria faberi (SETFA) [6], 70%. For the same molecule, the pest or weed control at 125 g/ha in [7] worked out at 90%; with Avena fatua (AVEFA) [8], 80%; in assay [9], 70%; in [10], 100%; in the assay on Lolium perenne (LOLPE) [11], 70%; with Setaria faberi (SETFA) [12], 100%.
As for `Cc1cc(C)c(C2=C(O)[C@@H]3[C@@H]4O[C@@H](C[C@@H]4C)[C@@H]3C2=O)c(C)c1` [Example T97], the pest or weed control at 250 g/ha worked out at 100% in [1]; 90% with Avena fatua (AVEFA) [2]; 100% in assay [3]; 100% in assay [4]; 100% with Lolium perenne (LOLPE) [5]; 90% in the assay on Setaria faberi (SETFA) [6]. Also, the pest or weed control at 125 g/ha turned out to be 90% in assay [7]; 90% in the assay with Avena fatua (AVEFA) [8]; 100% in [9]; 100% in assay [10]; 80% in the assay with Lolium perenne (LOLPE) [11]; 100% in the assay with Setaria faberi (SETFA) [12].
Take `Cc1cc(C)c(C2=C(O)[C@H]3[C@@H](C2=O)[C@]2(C)C=C[C@@]3(C)O2)c(C)c1` [Example T34]: the pest or weed control at 250 g/ha came to 70% in assay [1]; 30% in the assay with Avena fatua (AVEFA) [2]; 60% in [3]; 40% in assay [4]; 60% in the assay on Lolium perenne (LOLPE) [5]; 80% in the assay with Setaria faberi (SETFA) [6]. In addition, the pest or weed control at 125 g/ha turned out to be 40% in assay [7]; 30% with Avena fatua (AVEFA) [8]; 80% in assay [9]; 80% in assay [10]; 30% in the assay on Lolium perenne (LOLPE) [11]; 80% in the assay with Setaria faberi (SETFA) [12].
As to `Cc1cc(C)c(C2=C(O)[C@@H]3[C@@H]4O[C@@H](C[C@H]4c4cnc5ccccc5n4)[C@@H]3C2=O)c(C)c1` [Example T188], the pest or weed control at 250 g/ha in assay [1] is 40%; in the assay on Avena fatua (AVEFA) [2], 0%; in [3], 100%; in assay [4], 60%; in the assay with Lolium perenne (LOLPE) [5], 50%; with Setaria faberi (SETFA) [6] it was 70%. Besides, the pest or weed control at 125 g/ha in assay [7] stood at 80%; with Avena fatua (AVEFA) [8], 70%; in assay [9] it was 100%; in assay [10], 100%; in the assay with Lolium perenne (LOLPE) [11], 30%; with Setaria faberi (SETFA) [12], 70%.
As for `CCOC(=O)OC1=C(c2c(CC)cc(C)cc2CC)C(=O)[C@@H]2[C@H]1[C@H]1CC[C@@H]2O1` (racemic) [Example P18, carbonic acid (1RS,2SR,6RS,7SR)-5-oxo-4-(2,6-diethyl-4-methylphenyl)-10-oxatricyclo[5.2.1.0^2,6]-dec-3-en-3-yl ester ethyl ester], the pest or weed control at 250 g/ha (in assay [1]; in the assay on Avena fatua (AVEFA) [2]; in [3]; in assay [4]; in the assay with Lolium perenne (LOLPE) [5]; with Setaria faberi (SETFA) [6]) was 100% in each case. Further, the pest or weed control at 125 g/ha in assay [7] was determined as 90%; in the assay on Avena fatua (AVEFA) [8], 50%; in assay [9], 70%; in assay [10], 100%; with Lolium perenne (LOLPE) [11], 80%; with Setaria faberi (SETFA) [12] it was 70%.
For the molecule `CC#CCOC(=O)OC1=C(c2c(CC)cc(C)cc2CC)C(=O)[C@@H]2[C@H]1[C@H]1CC[C@@H]2O1` (racemic) [Example P15], the pest or weed control at 250 g/ha is 80% in [1]; 90% in the assay with Avena fatua (AVEFA) [2]; 100% in assay [3]; 100% in assay [4]; 90% in the assay with Lolium perenne (LOLPE) [5]; 100% with Setaria faberi (SETFA) [6]. For the same molecule, the pest or weed control at 125 g/ha in [7] is 100%; in the assay with Avena fatua (AVEFA) [8], 90%; in assay [9] it was 80%; in assay [10], 100%; in the assay with Lolium perenne (LOLPE) [11] it was 90%; in the assay on Setaria faberi (SETFA) [12], 80%.
